Measured values as given in article PMC12766724, “Synthesis, Anthelmintic Activity, and Mechanism of Action of 5‑Aryl‑1H‑indoles” (Journal of Agricultural and Food Chemistry, 2025).
Like-named read-outs stand apart in the source and are kept apart here.

Assays:
C. elegans N2 wild-type = test: Chitinase assay (reproductive capacity); type: in vivo, Caenorhabditis elegans
Description: (§1) The effect of compounds on C. elegans was evaluated using the Chitinase assay as we described previously.
After exposing L1 larvae to the compounds for 4 days, we observed the populations under a microscope and measured the Chitinase activity. The larvae produce the enzyme while hatching, and its activity is indicative of the reproductive capacity of the worms. Populations that fail to reproduce due to acute or reproductive toxicity or developmental abnormalities are detected.

[1] = tested on: C. elegans CB211 lev-1(e211) IV.; test: Chitinase assay (reproductive capacity); type: in vivo; conditions: Caenorhabditis elegans; levamisole-resistant strain
Description: (§2) C. elegans strains used in this study were N2 (wild-type), levamisole-resistant strains ZZ15 (lev-8(x15) X) and […] (lev-1(e211) IV), ivermectin-resistant strain DA1316 (avr-14(ad1305) I; avr-15(vu227) glc-1(pk54) V), mebendazole-resistant strain […] (ben-1(e1880) III), and three strains with mutations in succinate dehydrogenase, RP2699, RP2700, and RP2702. The worms were cultivated on Nematode Growth Medium agar plates seeded with Escherichia coli OP50 in 20 °C according to the standard cultivation protocols. Strains RP2699, RP2700, and RP2702 were generated by Prof. Peter Roy’s group. All other strains and bacteria were purchased from the Caenorhabditis Genetics Center (CGC, Minneapolis, MN).
as §1
(§3) Lastly, strain DA1316 has mutations in three genes encoding subunits of the glutamate-gated chloride channel and is highly resistant to avermectins.

[2] = tested on: C. elegans CB3474 ben-1(e1880) III.; test: Chitinase assay (reproductive capacity); type: in vivo; conditions: Caenorhabditis elegans; mebendazole-resistant strain
Description: as §2, §1, §3

[3] = tested on: C. elegans DA1316 avr-14(ad1305) I; avr-15(vu227) glc-1(pk54) V.; test: Chitinase assay (reproductive capacity); type: in vivo; conditions: Caenorhabditis elegans; ivermectin-resistant strain
Description: as §2, §1, §3

[4] = tested on: C. elegans ZZ15 lev-8(x15) X.; test: Chitinase assay (reproductive capacity); type: in vivo; conditions: Caenorhabditis elegans; levamisole-resistant strain
Description: as §2, §1, §3

[5] = tested on: age unsynchronized Ditylenchus destructor; test: Motility on WMicrotracker ONE; type: in vivo
Description: Populations of D. destructor, kindly provided by Central Institute for Supervising and Testing in Agriculture, the Ministry of Agriculture of the Czech Republic, were maintained according to the protocol previously described here.
(§4) The effect of compounds on motility of H. contortus, D. destructor, and H. schachtii was evaluated using the WMicrotracker ONE platform according to previously published protocols. ,
(§5) The instrument evaluates the activity of small animals by counting how many times infrared light microbeams passing through the wells of a microtiter plate are interrupted. In age-unsynchronized populations of D. destructor, we observed reduced motility of worm populations treated with the halogenated derivatives i-19, i-20, and i-21 (Figures A, S2.1A, S2.2A and Table S2.1). […] The decreases in mean activity counts after 72 h of treatment at 100 μM were 85% and 97%, respectively.

[6] = tested on: Heterodera schachtii second-stage juveniles (J2); test: Motility on WMicrotracker ONE; type: in vivo
Description: H. schachtii was maintained on mustard (Sinapsis alba cv. Albatros) roots grown in vitro on modified KNOP medium according to the previously published protocols. ,
as §4, §5

[7] = tested on: Arabidopsis thaliana Col-0; test: Germination rate and phytotoxicity; type: in vivo; conditions: for average fraction of germinated seeds: 5 DPS; for main root length / plant weight: 10 DPS
Description: Wild-type A. thaliana (Col-0 ecotype) seeds were sterilized with 70% EtOH with 0.1% Tween-20 solution (2 × 1 mL) for 10 min, rinsed with 96% EtOH (1 × 1 mL) for 10 min, and kept in the fridge (4 °C in the dark). Seeds were sown on a sterile 1/2 MS medium supplemented with 0.3% DMSO as a mock and test compounds at 5, 10, 50, and 100 μM concentrations in 0.3% DMSO. Plates were kept in long-day light conditions (22 °C/20 °C, 16 h light/8 h dark, 100 μmol m^–2 s^–1). After 5 days, the germination rate was evaluated. After an additional 5 days, primary root growth was measured with ImageJ software (https://imagej.nih.gov/ij/), and seedlings were weighted.

Skin fibroblasts (BJ) = test: Resazurin assay, 3-day treatment; type: cell-based, human; conditions: BJ
Description: Skin fibroblasts (BJ) were obtained from the American Type Culture Collection (ATCC, Manassas, VA), while human keratinocytes (HaCaT) were sourced from the German Cancer Research Center in Heidelberg, Germany. Cells were cultured in a standard DMEM medium from Sigma-Aldrich, supplemented with 10% fetal bovine serum, 2 mM glutamine, 100 U/mL penicillin, and 100 μg/mL streptomycin. Cultures were maintained under standard conditions (37 °C, 5% CO2, humidified atmosphere) and subcultured two to three times per week. We assessed the effect of 3-day compound treatments on cell viability using a resazurin reduction assay measuring mitochondrial activity. Approximately 5,000 cells in 80 μL of culture medium were seeded into the wells of a 96-well plate. Twenty-four hours later, 20 μL of 5-fold concentrated test compound solutions was added and tested across three concentrations prepared through 2-fold serial dilutions. The highest final concentration was 40 μM. After 72 h, we added an 11-fold concentrated resazurin solution to the wells, achieving a final concentration of 0.0125 μM. Fluorescence (ex = 570 nm, em = 610 nm) was measured after 3 h of incubation. […]

[8] = tested on: human keratinocytes (HaCaT); test: Resazurin assay, 3-day treatment; type: cell-based
Description: Skin fibroblasts (BJ) were obtained from the American Type Culture Collection (ATCC, Manassas, VA), while human keratinocytes (HaCaT) were sourced from the German Cancer Research Center in Heidelberg, Germany. Cells were cultured in a standard DMEM medium from Sigma-Aldrich, supplemented with 10% fetal bovine serum, 2 mM glutamine, 100 U/mL penicillin, and 100 μg/mL streptomycin. Cultures were maintained under standard conditions (37 °C, 5% CO2, humidified atmosphere) and subcultured two to three times per week. We assessed the effect of 3-day compound treatments on cell viability using a resazurin reduction assay measuring mitochondrial activity. Approximately 5,000 cells in 80 μL of culture medium were seeded into the wells of a 96-well plate. Twenty-four hours later, 20 μL of 5-fold concentrated test compound solutions was added and tested across three concentrations prepared through 2-fold serial dilutions. The highest final concentration was 40 μM. After 72 h, we added an 11-fold concentrated resazurin solution to the wells, achieving a final concentration of 0.0125 μM. Fluorescence (ex = 570 nm, em = 610 nm) was measured after 3 h of incubation.
The disubstituted derivatives i-25 and i-27 were the most toxic in the set, causing around a 50% decrease in viability of HaCaT cells at 40 μM.

[9] = 10 µM group, initial (prior to the treatment)
[10] = 50 µM group, initial (prior to the treatment)
[11] = 100 µM group, initial (prior to the treatment)

SMILES | IC50 (C. elegans N2 wild-type; Caenorhabditis elegans) [µM] | IC50 [1] [µM] | IC50 [2] [µM] | IC50 [3] [µM] | IC50 [4] [µM] | average activity counts [5, 9] | average activity counts ([5]; 10 µM, 48 h) | average activity counts ([5]; 10 µM, 72 h) | average activity counts [5, 10] | average activity counts ([5]; 50 µM, 48 h) | average activity counts ([5]; 50 µM, 72 h) | average activity counts [5, 11] | average activity counts ([5]; 100 µM, 48 h) | average activity counts ([5]; 100 µM, 72 h) | average activity counts [6, 9] | average activity counts ([6]; 10 µM, 48 h) | average activity counts ([6]; 10 µM, 72 h) | average activity counts [6, 10] | average activity counts ([6]; 50 µM, 48 h) | average activity counts ([6]; 50 µM, 72 h) | also measured
CC(C)Oc1cccc(-c2ccc3[nH]ccc3c2)c1 [i-15] | < 10 | 8.86 ± 0.9 | 10.2 ± 0.51 | 9.1 ± 2.21 | 8.55 ± 1.04 | 224 | 201 | 224 | 226 | 198 | 218 | 217 | 199 | 206 | 169 | 191 | 164 | 188 | 193 | 144 | IC50 (C. elegans N2 wild-type): 7.93 ± 0.66 µM; average activity counts [6, 11]: 195; average activity counts ([6]; 100 µM, 48 h): 212; average activity counts ([6]; 100 µM, 72 h): 175; average fraction of germinated seeds ([7]; 5 µM): 0.98; main root length ([7]; 5 µM): 36.67 mm; plant weight ([7]; 5 µM): 35.21 mg; average fraction of germinated seeds ([7]; 10 µM): 0.93; main root length ([7]; 10 µM): 36.13 mm; plant weight ([7]; 10 µM): 31.55 mg; average fraction of germinated seeds ([7]; 50 µM): 0.95; main root length ([7]; 50 µM): 35.01 mm; plant weight ([7]; 50 µM): 29.94 mg; Average viability (signal intensity relative to control) (Skin fibroblasts (BJ); 10 µM): 1 ± 0.03; Average viability (signal intensity relative to control) (Skin fibroblasts (BJ); 20 µM): 1.03 ± 0.04; Average viability (signal intensity relative to control) (Skin fibroblasts (BJ); 40 µM): 0.98 ± 0.05; Average viability (signal intensity relative to control) ([8]; 10 µM): 1.01 ± 0.04; Average viability (signal intensity relative to control) ([8]; 20 µM): 1.04 ± 0.05; Average viability (signal intensity relative to control) ([8]; 40 µM): 1.01 ± 0.05
CCOc1cc(-c2ccc3[nH]ccc3c2)ccc1Cl [i-25] | 9.74 ± 1.65 | 9.36 ± 0.43 | 7.79 ± 0.36 | 9.93 ± 0.68 | 8.72 ± 0.13 | 234 | 221 | 194 | 246 | 209 | 197 | 230 | 210 | 203 | 174 | 160 | 171 | 178 | 184 | 170 | average activity counts [6, 11]: 172; average activity counts ([6]; 100 µM, 48 h): 195; average activity counts ([6]; 100 µM, 72 h): 190; average fraction of germinated seeds ([7]; 5 µM): 0.98; main root length ([7]; 5 µM): 38.29 mm; plant weight ([7]; 5 µM): 30.25 mg; average fraction of germinated seeds ([7]; 10 µM): 0.95; main root length ([7]; 10 µM): 38.15 mm; plant weight ([7]; 10 µM): 31.97 mg; average fraction of germinated seeds ([7]; 50 µM): 0.96; main root length ([7]; 50 µM): 34.25 mm; plant weight ([7]; 50 µM): 27.79 mg; Average viability (signal intensity relative to control) (Skin fibroblasts (BJ); 10 µM): 0.92 ± 0.01; Average viability (signal intensity relative to control) (Skin fibroblasts (BJ); 20 µM): 0.9 ± 0.05; Average viability (signal intensity relative to control) (Skin fibroblasts (BJ); 40 µM): 0.74 ± 0.06; Average viability (signal intensity relative to control) ([8]; 10 µM): 0.93 ± 0.02; Average viability (signal intensity relative to control) ([8]; 20 µM): 0.88 ± 0.06; Average viability (signal intensity relative to control) ([8]; 40 µM): 0.53 ± 0.1; decrease in viability ([8]; 40 µM): ~50%
